Here are results for 1 compound from patent publication US9808530B2, “Composition of tiacumicin compounds” (Astellas Pharma Europe Ltd., priority 2013, dated 2017).

Structures are written as SMILES.

The conditions of series [1]: oral administration; cited from earlier work.
Series [2] is described as follows: Foaming property of fidaxomicin suspensions in water (tube shaken, foaming checked). It is filed as physicochemical. Particulars: 400 mg fidaxomicin in 10 mL distilled water; immediately after preparation and 1 hour after preparation. The procedure: To 400 mg of fidaxomicin was added 10 mL of distilled water in a tube. The mixture was shaken and allowed to stand.
Hydroxypropylcellulose (HPC-L (middle viscosity grade) and HPC-SSL (low viscosity grade) respectively), in a concentration of 0.3 and 0.6 w/v % respectively, was added to 5 mL of distilled water in a tube which contained 0 and 200 mg respectively of fidaxomicin. Each mixture was shaken and allowed to stand.
Xanthan gum in a concentration of 0.2% w/v was added to 5 mL of distilled water in a tube, which contained 0 and 200 mg respectively of fidaxomicin. Each mixture was shaken and allowed to stand.
An amount of the granulate corresponding to 200 mg fidaxomicin was weighed into a tube and 5 ml, of water was added. The tube was vigorously shaken for about 1 min. Foaming of the suspension was not observed.
An amount of each of the granulates OS-5-OS-9, corresponding to 200 mg fidaxomicin, was weighed into a tube and 5 mL of water was added. Further, suspensions OS-10 and OS-11 were prepared by addition of 2.5 mg and 5.0 mg respectively of xanthan gum to a suspension with composition OS-5. Each tube was vigorously shaken for about 1 min. In none of the suspensions foaming was observed.
Each of the granulate compositions OS-1, OS-2 and OS-3 was weighed into a tube, water was added and the tubes were vigorously shaken for about 1 minute. […]

A short description of series [3]: Storage stability of fidaxomicin with a sugar in a ratio of 1:9. It counts as physicochemical. Particulars: glass bottle. The procedure:
Fidaxomicin and a sugar, selected from the group consisting of D-mannitol, erythritol, isomalt and trehalose, in a ratio of 1:9, were transferred into a glass bottle and stored at 5° C. during 10 days, 70° C. during 9 days and 40° C./75% RH during 1 month, respectively. In the presence of each sugar the degradation of fidaxomicin increased when stored at 70° C. during 9 days. […] (see Table 7).

For series [4] the following is noted: low solubility, low permeability; cited from earlier work.

With `CCc1c(Cl)c(O)c(Cl)c(O)c1C(=O)O[C@H]1[C@H](O)[C@H](OC)[C@H](OC/C2=C\C=C\C[C@H](O)/C(C)=C/[C@H](CC)[C@@H](O[C@@H]3OC(C)(C)[C@@H](OC(=O)C(C)C)[C@H](O)[C@@H]3O)/C(C)=C/C(C)=C/C[C@@H]([C@@H](C)O)OC2=O)O[C@@H]1C` [fidaxomicin, 3-[[[6-deoxy-4-O-(3,5-dichloro-2-ethyl-4,6-dihydroxybenzoyl)-2-O-methyl-β-D-mannopyranosyl]oxy]methyl]-12(R)-[[6-deoxy-5-C-methyl-4-O-(2-methyl-1-oxopropyl)-β-D-lyxo-hexopyranosyl]oxy]-11(S)-ethyl-8(S)-hydroxy-18(S)-(1(R)-hydroxyethyl)-9,13,15-trimethyloxacyclooctadeca-3,5,9,13,15-pentaen-2-one], in series [1], the “absorption from the intestinal tract” value is given as “poorly absorbed”. Besides, the “foaming property on contact with water” value in series [2] is “intrinsically foaming property”. For the same compound, the “Total related substances (%)” value in series [3] (5° C./10 days) was found to be 1.91%; in series [3] (70° C./9 days), 5.10%. For the same compound, the BCS class result in series [4] was “BCS Class IV”.
